The target in the data set is hERG channel (Homo sapiens (Human), UniProt Q12809). Description: hERG-Channel Assay (Assay 3), whole-cell patch clamp. Type of data set: cell-based. The conditions noted are these: HEK293 cells stably transfected with hERG cDNA, pH 7.4, 35° C. The source says: hERG-Channel Assay (Assay 3)
• HEK (human embryonic kidney) 293 cells were stably transfected with hERG cDNA. • Pipettes and Solutions:
Cells were superfused with a bath solution containing (mM): NaCl (137), KCl (4.0), MgCl2 (1.0), CaCl2 (1.8), Glucose (10), HEPES (10), pH 7.4 with NaOH. Patch pipettes were made from borosilicate glass tubing using a horizontal puller and filled with pipette solution containing (mM): K-aspartate (130), MgCl2 (5.0), EGTA (5.0), K2ATP (4.0), HEPES (10.0), pH 7.2 with KOH. Resistance of the microelectrodes was in the range between 2 and 5 MΩ.
Stimulation and Recording:
Membrane currents were recorded using an EPC-10 patch clamp amplifier and PatchMaster software. hERG-mediated membrane currents were recorded at 35° C., using the whole-cell configuration of the patch-clamp technique. […] During each inter-pulse interval 4 pulses scaled down by a factor of 0.2 were recorded for a P/n leak subtraction procedure. […]
The different concentrations of the test compound were applied sequentially on each of the different cells investigated. A steady state level of baseline current was measured for at least 6 sweeps prior to the application of the first test compound concentration. […]
Peak current amplitudes were measured 3 ms after the ramp to +40 mV. […]

By inhibition is commonly meant the relative decrease from the control value, in per cent. Lower therefore signals a weak effect.

hERG channel, sequence (Q12809 whole entry): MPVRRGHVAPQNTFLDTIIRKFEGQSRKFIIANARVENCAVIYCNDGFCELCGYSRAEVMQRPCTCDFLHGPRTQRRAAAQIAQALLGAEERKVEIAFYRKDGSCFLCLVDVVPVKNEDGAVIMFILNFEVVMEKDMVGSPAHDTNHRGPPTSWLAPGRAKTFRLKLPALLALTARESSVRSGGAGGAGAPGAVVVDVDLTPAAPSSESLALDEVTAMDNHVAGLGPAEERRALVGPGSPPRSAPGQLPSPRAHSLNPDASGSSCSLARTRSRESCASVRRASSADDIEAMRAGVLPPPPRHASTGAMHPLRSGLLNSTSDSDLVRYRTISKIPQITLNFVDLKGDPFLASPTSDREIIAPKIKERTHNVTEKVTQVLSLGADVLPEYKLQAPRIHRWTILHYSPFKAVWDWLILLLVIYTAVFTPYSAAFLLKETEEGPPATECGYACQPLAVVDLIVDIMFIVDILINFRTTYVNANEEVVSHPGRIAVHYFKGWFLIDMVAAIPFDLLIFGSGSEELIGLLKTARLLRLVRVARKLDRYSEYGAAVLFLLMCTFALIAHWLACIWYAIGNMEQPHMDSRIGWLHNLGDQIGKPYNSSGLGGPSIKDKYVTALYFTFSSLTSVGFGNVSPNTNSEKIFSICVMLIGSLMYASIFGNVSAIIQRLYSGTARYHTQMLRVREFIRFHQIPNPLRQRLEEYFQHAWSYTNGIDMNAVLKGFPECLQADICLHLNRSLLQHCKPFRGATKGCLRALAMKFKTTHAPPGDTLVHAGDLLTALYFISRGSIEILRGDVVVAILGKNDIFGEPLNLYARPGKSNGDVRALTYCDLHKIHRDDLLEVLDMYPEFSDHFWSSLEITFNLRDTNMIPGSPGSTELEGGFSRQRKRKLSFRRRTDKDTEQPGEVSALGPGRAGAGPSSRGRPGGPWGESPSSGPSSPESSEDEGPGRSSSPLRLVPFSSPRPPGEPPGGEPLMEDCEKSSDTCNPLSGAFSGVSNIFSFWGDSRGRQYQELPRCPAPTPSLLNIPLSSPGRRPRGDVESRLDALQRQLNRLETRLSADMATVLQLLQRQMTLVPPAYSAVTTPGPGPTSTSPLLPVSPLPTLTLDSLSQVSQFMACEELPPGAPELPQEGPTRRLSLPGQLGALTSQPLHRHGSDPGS

The compound `COC1CCC2(CC1)Cc1ccc(C#N)cc1C21N=C(N)N(CC2CCCO2)C1=O` (stereo not shown) gave an inhibition at 10 µM of 16%.

The record behind these values is patent publication US9526727B2, “Inhibitors of beta-secretase” (Vitae Pharmaceuticals, Inc., priority 2012, dated 2016).
